Tested on: patients with advanced solid tumors
Assay: Phase Ia safety, tolerability, DLT/MTD (TRAEs graded by NCI-CTCAE v4.03)
Assay type: in vivo
From the text: This is a phase I clinical study (ClinicalTrials.gov identifier: NCT03544905), including a phase Ia study of oral CYH33 monotherapy in patients with advanced solid tumors, and a phase Ib study of oral CYH33 monotherapy focused on several specific tumors. […] The phase Ia study included dose-escalation stage and dose-expansion stage. […] The secondary outcomes also included evaluation of changes in PD biomarkers in response to CYH33 treatment (including proteomics of blood specimens at baseline and during treatment, immunocyte subpopulation ratios and molecular markers, cell free DNA in peripheral blood, and blood glucose). However, in compliance with the local human genetic resource regulations and procedures, peripheral blood samples were not obtained for PD biomarker analysis, therefore, only fasting blood glucose was obtained and used as a PD biomarker for CYH33 treatment. The exploratory objective was the relationship between the efficacy of CYH33 treatment and tumor biomarker status.
An accelerated titration design (ATD) and an mTPI-2 design were adopted to guide toxicity monitoring and dose escalation. The target DLT rate was 30%, with the acceptable toxicity probability interval of (0.25, 0.35). For the first two preset doses of 1 mg and 5 mg CYH33 in the ATD phase, if there were no grade ≥2 TRAEs during the DLT observation period, 100% dose escalation was allowed in the subsequent dose group. After entering the mTPI-2 phase, the SMC guidance was followed to determine the dose level, dosing frequency, and number of subjects in the next dose group, based on the previously obtained safety and PK data for that dose group. If necessary, it was permitted to add an additional dose level between two explored dose levels for further investigation.
During the phase Ia study, the safe and probably effective dose will be delivered to the expansion cohort to further investigate the safety, tolerability and efficacy of this dose level, while the dose escalation study can be continued simultaneously. If necessary, it is permitted to insert a new dose level between two explored dose levels for exploration. The subjects to be enrolled in the expansion cohort are patients with advanced solid tumors with PIK3CA gene mutations. When there are two or more dose groups at dose expansion simultaneously, the allocation ratio of the number of subjects in each dose group should be as close as possible to the ratio of ORR in each dose group. In principle, when the cumulative ORR at a certain dose level is <10%, the number of subjects in this dose group will be determined by the SMC. A total of approximately 60 patients are expected to be enrolled in the whole phase Ia study.
The secondary endpoints included preliminary efficacy assessments based on ORR, PFS, DoR, DCR, and clinical benefit rate, assessed per RECIST 1.1,PK parameters for CYH33 and its metabolite I27, and changes in PD biomarkers in response to CYH33 treatment.

[1] = all patients 1–60 mg QD, n = 51

## COC(=O)Nc1cc(C(F)(F)F)c(-c2nc(N3CCOCC3)c3cc(CN4CCN(S(C)(=O)=O)CC4)cn3n2)cn1 [CYH33, methyl (5-(6-((4-(methylsulfonyl)piperazin-1-yl)methyl)−4-morpholinopyrrolo[2,1-f][1,2,4]triazin-2-yl)−4-(trifluoromethyl)pyridin-2-yl)carbamate]
1–20 mg QD, n = 10
  Generalized oedema, Grade ≥ 3 TRAE: 0 n (%)
  Grade ≥ 3 TRAEs in all patients: 2 (20.0) n (%)
  Hyperglycemia, Grade ≥ 3 TRAE: 2 (20.0) n (%)
  Hyperglycemia, all-grade TRAE: 7 (70.0) n (%)
  Hyponatremia, all-grade TRAE: 0 n (%)
  Mouth ulceration, Grade ≥ 3 TRAE: 0 n (%)
  Mouth ulceration, all-grade TRAE: 1 (10.0) n (%)
  Nausea, Grade ≥ 3 TRAE: 0 n (%)
  Nausea, all-grade TRAE: 3 (30.0) n (%)
  Peripheral edema, Grade ≥ 3 TRAE: 0 n (%)
  Peripheral edema, all-grade TRAE: 1 (10.0) n (%)
  Rash, Grade ≥ 3 TRAE: 0 n (%)
  Rash, all-grade TRAE: 1 (10.0) n (%)
  TRAEs leading to death: 0 n (%)
  TRAEs leading to dose discontinuation: 0 n (%)
  TRAEs leading to dose interruption: 2 (20.0) n (%)
  TRAEs leading to dose reduction: 1 (10.0) n (%)
  TRAEs occurring in ≥ 10% of patients: 7 (70.0) n (%)
  Treatment-related serious adverse events: 0 n (%)
  Vomiting, all-grade TRAE: 3 (30.0) n (%)
  Weight loss, all-grade TRAE: 1 (10.0) n (%)
  White blood cell count decreased, Grade ≥ 3 TRAE: 0 n (%)
QD
  recommended phase 2 dose (RP2D): 40 mg
[1]
  Blood glucose increased, Grade ≥ 3 TRAE: 1 (2.0) n (%)
  Decreased appetite, Grade ≥ 3 TRAE: 1 (2.0) n (%)
  Decreased appetite, all-grade TRAE: 21 (41.2) n (%)
  Diabetic ketosis, Grade ≥ 3 TRAE: 1 (2.0) n (%)
  Diarrhea, Grade ≥ 3 TRAE: 2 (3.9) n (%)
  Diarrhea, all-grade TRAE: 15 (29.4) n (%)
  Dizziness, Grade ≥ 3 TRAE: 1 (2.0) n (%)
  Electrocardiogram QT prolonged, Grade ≥ 3 TRAE: 1 (2.0) n (%)
  Face oedema, Grade ≥ 3 TRAE: 1 (2.0) n (%)
  Facial edema, all-grade TRAE: 8 (15.7) n (%)
  Fatigue, Grade ≥ 3 TRAE: 1 (2.0) n (%)
  Fatigue, all-grade TRAE: 9 (17.6) n (%)
  Generalized oedema, Grade ≥ 3 TRAE: 1 (2.0) n (%)
  Grade ≥ 3 TRAEs in all patients: 33 (64.7) n (%)
  Hyperglycemia, Grade ≥ 3 TRAE: 30 (58.8) n (%)
  Hyperglycemia, all-grade TRAE: 46 (90.2) n (%)
  Hyponatremia, all-grade TRAE: 6 (11.8) n (%)
  Mouth ulceration, Grade ≥ 3 TRAE: 1 (2.0) n (%)
  Mouth ulceration, all-grade TRAE: 6 (11.8) n (%)
  Nausea, Grade ≥ 3 TRAE: 1 (2.0) n (%)
  Nausea, all-grade TRAE: 19 (37.3) n (%)
  Peripheral edema, Grade ≥ 3 TRAE: 4 (7.8) n (%)
  Peripheral edema, all-grade TRAE: 13 (25.5) n (%)
  Rash, Grade ≥ 3 TRAE: 1 (2.0) n (%)
  Rash, all-grade TRAE: 9 (17.6) n (%)
  TRAEs leading to death: 0 n (%)
  TRAEs leading to dose discontinuation: 4 (7.8) n (%)
  TRAEs leading to dose interruption: 36 (70.6) n (%)
  TRAEs leading to dose reduction: 6 (11.8) n (%)
  TRAEs occurring in ≥ 10% of patients: 47 (92.2) n (%)
  Treatment-related serious adverse events: 6 (11.8) n (%)
  Vomiting, all-grade TRAE: 13 (25.5) n (%)
  Weight loss, all-grade TRAE: 16 (31.4) n (%)
  White blood cell count decreased, Grade ≥ 3 TRAE: 1 (2.0) n (%)
All patients, n = 1 each
  serious AEs nausea, vomiting, abdominal pain, dyspnea, hyperglycemia, pyrexia (each): 2.0%
All patients, n = 1 for each
  dose reduction due to peripheral edema, weight loss, mouth ulceration, prolonged electrocardiogram QT (each): 2.0%
All patients, n = 2
  dose reduction due to fatigue: 4.0%
All patients, n = 32 of 51
  hyperglycemia leading to dose interruption: 62.7%
All patients, n = 36 of 51
  patients with dose interruptions due to TRAEs: 70.6%
All patients, n = 51
  Decreased appetite, all-grade TRAE: 41.2%
  Diarrhea, all-grade TRAE: 29.4%
  Facial edema, all-grade TRAE: 15.7%
  Fatigue, all-grade TRAE: 17.6%
  Hyperglycemia, Grade ≥ 3 TRAE: 58.8%
  Hyperglycemia, TRAE at any grade: 90.2%
  Hyponatremia, all-grade TRAE: 11.8%
  Mouth ulceration, all-grade TRAE: 11.8%
  Nausea, all-grade TRAE: 37.3%
  Peripheral edema, all-grade TRAE: 25.5%
  Rash, all-grade TRAE: 17.6%
  Vomiting, all-grade TRAE: 25.5%
  Weight loss, all-grade TRAE: 31.4%
  incidences of all other grade ≥3 TRAEs: < 5%
  treatment-related deaths: No treatment-related deaths
All patients, n = 51 (four patients)
  Peripheral edema, grade 3 TRAE: 7.8%
All patients, six of 51
  patients with dose reductions due to TRAEs: 11.8%
  patients with treatment-associated serious AEs: 11.8%
All patients, three of 51
  patients who permanently discontinued CYH33 due to DLTs: 5.9%
Once daily, single agent, dose-escalation stage (mTPI-2)
  maximum tolerated dose (MTD): 40 mg

— paper PMC9669016, “First-in-human phase Ia study of the PI3Kα inhibitor CYH33 in patients with solid tumors” (Nature Communications, 2022)
